“Also recorded” adds a separate entry of the source.
How the values were obtained:
[1] = tested on: gene expression in spinal cord and spleen; test: qRT-PCR gene expression in spinal cord and spleen of EAE mice; type: in vivo, female C57BL/6 mice
Experimental: Spinal cord was harvested from mice and snap frozen in liquid nitrogen (n = 6–7, each group). Total RNA was extracted from spinal cord and spleen using ISOGEN (Nippon Gene). qRT-PCR analysis was performed as described previously. Briefly, qRT-PCR was performed on a LightCycler rapid thermal cycler system using a LightCycler 480 SYBR Green I Master (Roche Applied Science) according to the manufacturer's instructions. Data were analyzed by using the comparative Ct method as means of relative quantification, normalized to an endogenous reference (b-actin, Actb). The sequences of the primers are described below: […]

[2] = In vitro BBB penetration assay (BBB Kit RBT-24H); conditions: rat
Experimental: (§2) This BBB model was reconstructed by the culture of both primary rat brain micro vascular endothelial cells and rat brain pericytes separated by a macroporous Millicell membrane (24 wells, pore size: 3.0 μm, Millipore, Bedford, MA, USA). Briefly, we pre-incubated the BBB kits at 37 °C in 5% CO2 conditions for 4–5 days, in order to strongly reconstruct the barrier integrity and tight-junctions. To evaluate the barrier integrity and confirm the functionality of the tight-junctions, trans-endothelial electrical resistance (TEER) was measured at day 5-post incubation. Assays were carried out using TEER values in the range of 150-to 300-Ω cm^2 [11]. Once the tight junctions reach a TEER of 300-Ω cm^2, 0.9 mL PBS-based assay medium was added to blank 24-well culture plates. Prior to incubation, selected compounds were diluted in DMSO 100%. The compounds suspended in 0.2 mL assay medium were fortified into the apical side and incubated for 30 min. Next, the medium from both the apical and the basolateral sides were collected and further analyzed by liquid chromatography–mass spectrometry.

MBP69-88-induced EAE = test: EAE rat model of MS, clinical paralysis score; type: in vivo; conditions: EAE Lewis rats, from onset of signs, dpi 15; TM5484 5 mg/kg/d, fingolimod 0.5 mg/kg
Experimental: (§1) All animal experiments conformed to the National Health Guide for the Care and Use of Laboratory Animals and were approved by the Animal Committee at Tohoku University. Studies were performed on 11-week-old female C57BL/6 mice (n = 8–10, each group) and 10-week-old Lewis rats (n = 6–8, each group), obtained from SJC, Japan SLC (Hamamatsu, Shizuoka, Japan). Animals were housed under a 12h light-dark cycle and given regular chow, MF (Oriental Yeast Co., Ltd.).
Experimental autoimmune encephalomyelitis (EAE) was induced in mice as described previously. […] Animals were scored for motor paralysis on a daily basis. Disease severity was assessed using a scale ranging from 0 to 5 (Hooke Laboratories, Inc.): 0, normal; 1, limp tail; 1.5, Limp tail and hind leg inhibition; 2, Limp tail and weakness of hind legs.; 2.5, Limp tail and dragging of hind legs; 3, Limp tail and complete paralysis of hind legs; 3.5, Limp tail and complete paralysis of hind legs and Hind legs are together on one side of body; 4, Limp tail, complete hind leg and partial front leg paralysis; 4.5, Complete hind and partial front leg paralysis, no movement around the cage; 5, Mouse is spontaneously rolling in the cage. […]

[3] = tested on: spinal cord (lumbar segments); test: Histology of spinal cord of EAE mice; type: in vivo, female C57BL/6 mice
Description: Mice were perfused in the heart with saline 0.9% followed by neutral-buffered formalin 10% (n = 3-4/group). Slides from different sections of the spinal cord were immersed and fixed overnight in 10% neutral-buffered formalin. Next, samples were transfered and immersed in a 10, 20 and 30% sucrose solution for consecutive nights. Sections were embedded in O.C.T compounds (Sakura Finetek, Japan) for the subsequent immunostaining study. Four sections of the spinal cord from each group were examined. Since the clinical manifestations are typically initiated as limp tail and hind-limb paralysis in this model, we focused on lumbar spinal segments. Frozen specimens were then incubated overnight at room temperature and stained with Cd11b for macrophage infiltration (Abcam), myelin basic protein (MBP) for demyelination, neurofilament non-phosphorylated (SMI-32) for axonal damage, collagen IV for extracellular matrix depositions (Abcam) and fibrinogen (Funakoshi, Japan). Incubation for 2 hs at room temperature in corresponding biotinylated goat secondary antibody was performed. For immunofluorescence, the sections were incubated overnight at room temperature using primary antibody Iba-1 for microglia activation (Wako Chemicals). After wash in PBS, the sections were then incubated in corresponding fluorescent goat secondary antibody (Wako Chemicals). For Cd11b, the number of positive macrophage was quantified as the total cells per selected area. The area of demyelination was calculated as the percentage of negative staining for MBP per selected area. As for axonal damage and collagen IV deposition, the positive staining per selected area was analyzed and calculated as the percentage per total area. For Quantification analysis was assessed by ImageJ TM software (version 1.440, National Institute of Health, Bethesda, MD, USA).

MOG35-55-induced EAE = test: EAE mouse model of MS, clinical paralysis score; type: in vivo, female C57BL/6 mice; conditions: EAE mice, oral daily from onset of signs, TM5484 5 mg/kg/d, fingolimod 0.5 mg/kg, 6α-methylprednisolone 5 mg/kg
Experimental: as §1
Experimental autoimmune encephalomyelitis (EAE) was induced in mice as described previously. Briefly, on day 0, 200 microgramme of myelin oligodendrocyte glycoprotein^35–55 (MOG^35–55) peptide was injected s.c, twice, in the lower and upper back of the mice, in an equal volume of complete Freund’s adjuvant (Hooke Laboratories, Inc.). Next, 200 ng of pertussis toxin (Hooke Laboratories, Inc.) dissolved in PBS was applied i.p. On day 1, another 200 ng of pertussis toxin was administered. For rats, 200 microgramme of myelin basic protein^69-88 (MBP^69-88) was injected (Hooke Laboratories, Inc.) twice, in the lower back on day 0. Animals were scored for motor paralysis on a daily basis. Disease severity was assessed using a scale ranging from 0 to 5 (Hooke Laboratories, Inc.): 0, normal; 1, limp tail; 1.5, Limp tail and hind leg inhibition; 2, Limp tail and weakness of hind legs.; 2.5, Limp tail and dragging of hind legs; 3, Limp tail and complete paralysis of hind legs; 3.5, Limp tail and complete paralysis of hind legs and Hind legs are together on one side of body; 4, Limp tail, complete hind leg and partial front leg paralysis; 4.5, Complete hind and partial front leg paralysis, no movement around the cage; 5, Mouse is spontaneously rolling in the cage. Mice were typically observed for 28 days, during which they will remain chronically paralyzed.

[4] = tested on: MOG35-55-induced EAE, motor coordination; test: Foot print analysis in EAE mice; type: in vivo, female C57BL/6 mice
Experimental: Briefly, to obtain footprints, the hind- and forefeet of the mice were coated with black non-toxic paint. The floor of the open field box was covered with white paper. Each mouse was placed in a corner of the open field and allowed to walk across the paper, leaving a track of footprints. If a mouse didn’t walk forward, the task was considered a failure. For each step parameter, three values were measured from each run, excluding footprints made at the beginning and end of the run where the animal was initiating and finishing movement respectively. The mean value of each set of three values was used for analysis.

[5] = tested on: in vitro model of BBB (primary rat brain micro vascular endothelial cells and rat brain pericytes); test: In vitro BBB penetration assay (BBB Kit RBT-24H); conditions: in vitro BBB model, apical to basolateral, 30 min, n = 3
Experimental: as §2

in vitro = conditions: rat
Experimental: as §2

Q: Which results are given for `CCCCCCCCc1ccc(CCC(N)(CO)CO)cc1` [fingolimod]?
A: BDNF expression ([1]; spinal cord): did not restore BDNF expression; ChAT expression ([1]; spinal cord): up-regulated ChAT expression; PAI-1 mRNA expression ([1]; spinal cord): no effects; gene expression of inflammatory markers (TNF-α, IL-6, Ccl2, Cd68) ([1]; spinal cord and spleen, dpi 28, treatment from onset of paralysis): able to modulate these inflammatory effects; BDNF expression ([1]; spinal cord, listed as Fingolimod): no effects; expression of IL-10 ([1]; spleen): upregulated; Papp at 30 min [2]: 56 ×10⁻⁶ cm/s; paralysis score at the peak of the paralysis (MBP69-88-induced EAE): reduced the paralysis score to a level similar to TM5484; fibrin (fibrinogen) deposition [3]: no changes were observed; collagen IV deposition ([3]; dpi 28): able to ameliorate collagen IV deposition; demyelination (anti-MBP staining) ([3]; dpi 28): reduced; macrophage accumulation and microglia activation (Cd11b and Iba-1 staining) ([3]; dpi 28, TM5484 5 mg/kg/d, fingolimod 0.5 mg/kg/d): significantly reduced; also recorded: ameliorated; motor paralysis score (MOG35-55-induced EAE): ameliorated the motor paralysis; also recorded: attenuated the paralysis score to the level observed with TM5484; stride length ([4]; dpi 28, TM5484 5 mg/kg/d, fingolimod 0.5 mg/kg): 5.48 cm; stride length (in words) ([4]; oral administration): significantly preserved the stride length

Q: What does the source list for `C[C@H]1C[C@@H]2[C@H]([C@@H](O)C[C@@]3(C)[C@H]2CC[C@]3(O)C(=O)CO)[C@@]2(C)C=CC(=O)C=C12` [6α-methylprednisolone]?
A: motor paralysis score (MOG35-55-induced EAE): ameliorated the motor paralysis; motor paralysis score (MOG35-55-induced EAE; listed as 6-α methylprednisone): attenuated the paralysis score to the level observed with TM5484

Q: For `O=C(COCC(=O)Nc1ccc(Cl)cc1C(=O)O)Nc1cccc(-c2ccoc2)c1` [TM5441], which “apparent permeability coefficient (Papp)” value [5] is on record?
A: The value was 32.1 x 10^–6 cm/s.

Q: For `CC(C)NCC(O)COc1cccc2ccccc12` (stereo not shown) [Propanolol], which Papp at 30 min (in vitro) is on record?
A: Its Papp at 30 min is 31.3 ×10⁻⁶ cm/s.

Source: article PMC4411110 (PLoS ONE, 2015)
